Results taken from paper PMC12589708, “Structural determinants for red‐shifted absorption in higher‐plants Photosystem I” (The New Phytologist, 2025).

Columns and labels:
Assay in all cases: cryo-EM structure
Type in all cases: binding
Lhca1‐Lhca4 = biological target: T1, Lhca1‐Lhca4 (Arabidopsis thaliana, UniProt P27521+Q01667); conditions: PSI-LHCI supercomplex, 3.13 A; Lhca1/Lhca4 interface near Chl a615, hydrogen bond to Lhca1 Ser210
T1 construct: heterodimer within native PSI-LHCI supercomplex purified from leaves; ligand at the subunit interface
T1 sequence (Q01667 36-241): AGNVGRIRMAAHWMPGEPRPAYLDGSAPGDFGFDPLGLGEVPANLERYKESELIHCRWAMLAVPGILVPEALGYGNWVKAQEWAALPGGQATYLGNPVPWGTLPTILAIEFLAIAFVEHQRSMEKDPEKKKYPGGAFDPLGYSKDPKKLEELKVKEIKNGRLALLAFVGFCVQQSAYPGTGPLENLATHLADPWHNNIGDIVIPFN
T1 sequence (P27521 53-251): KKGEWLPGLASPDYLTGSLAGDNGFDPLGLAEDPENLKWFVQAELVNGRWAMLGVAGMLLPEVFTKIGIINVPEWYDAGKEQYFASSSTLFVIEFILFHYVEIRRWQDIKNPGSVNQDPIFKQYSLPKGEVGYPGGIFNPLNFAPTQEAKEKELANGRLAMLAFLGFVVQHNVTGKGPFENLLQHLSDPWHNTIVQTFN

Lhca1 = biological target: T2, Lhca1 (Arabidopsis thaliana, UniProt Q01667); conditions: PSI-LHCI supercomplex, 3.13 A; site L2
T2 construct: native LHCI antenna subunit within PSI-LHCI supercomplex purified from leaves (beta-DM, sucrose gradient)
T2 sequence (Q01667 36-241): T1 sequence (Q01667 36-241)

Lhca2 = biological target: T3, Lhca2 (Arabidopsis thaliana, UniProt Q9SYW8); conditions: PSI-LHCI supercomplex, 3.13 A; site L2
T3 construct: native LHCI antenna subunit within PSI-LHCI supercomplex purified from leaves (beta-DM, sucrose gradient)
T3 sequence (Q9SYW8 44-257): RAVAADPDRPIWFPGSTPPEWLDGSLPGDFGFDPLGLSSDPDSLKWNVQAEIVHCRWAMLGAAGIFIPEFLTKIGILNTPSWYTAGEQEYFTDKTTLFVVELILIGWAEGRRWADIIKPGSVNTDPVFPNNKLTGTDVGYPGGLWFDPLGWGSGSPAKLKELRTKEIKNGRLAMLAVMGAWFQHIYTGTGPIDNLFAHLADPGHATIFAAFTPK

Row | Compound | cryo-EM structure (Lhca1‐Lhca4) | cryo-EM structure (Lhca1) | cryo-EM structure (Lhca2)
1 | CC1=C[C@H](O)CC(C)(C)[C@H]1/C=C/C(C)=C/C=C/C(C)=C/C=C/C=C(C)/C=C/C=C(C)/C=C/C1=C(C)C[C@@H](O)CC1(C)C [lutein] | The Lut was situated at the interface between Lhca1 and Lhca4 | – | –
2 | CC(/C=C/C=C(C)/C=C/[C@@]12O[C@]1(C)C[C@@H](O)CC2(C)C)=C\C=C\C=C(C)\C=C\C=C(C)\C=C\[C@@]12O[C@]1(C)C[C@@H](O)CC2(C)C [violaxanthin] | – | Chl a603–Vio L2 coupling were significantly higher for Lhca3 and Lhca4 than for Lhca1 | significantly higher for Lhca3 and Lhca4 than for Lhca1 and Lhca2
